Values of other authors in patent US20060201391A1, “Compositions having sustained-release insect repellency” (priority 2005, published 2006).

Test system: mosquitoes, stable flies and deer ticks

For `C[C@H]1COC(=O)[C@@H]2[C@@H]1CC[C@@H]2C` [DHN, dihydronepetalactone], the “insect repellency compared with DEET” value is given as “substantially equivalent to DEET”.
